The results in this text go back to BindingDB's records for doi:10.1016/j.bmcl.2003.10.062 (Technische Universitat Braunschweig, 2004).

Assay [1] deals with T1, Cyclin-dependent kinase 5 activator 1 [99-307] (Homo sapiens, UniProt Q00535).
T1 construct: 99-307
Kind of assay: Kinase Inhibition Assay. As to conditions: pH 7.2; 30 °C.

Assay [2] deals with Cyclin-dependent kinase 1/G2/mitotic-specific cyclin-B (Marthasterias glacialis, UniProt P15206+Q9DGD3). In words: Kinase Inhibition Assay. As to conditions: pH 7.2; 30 °C.
Sequence of Cyclin-dependent kinase 1/G2/mitotic-specific cyclin-B (Q9DGD3 whole entry): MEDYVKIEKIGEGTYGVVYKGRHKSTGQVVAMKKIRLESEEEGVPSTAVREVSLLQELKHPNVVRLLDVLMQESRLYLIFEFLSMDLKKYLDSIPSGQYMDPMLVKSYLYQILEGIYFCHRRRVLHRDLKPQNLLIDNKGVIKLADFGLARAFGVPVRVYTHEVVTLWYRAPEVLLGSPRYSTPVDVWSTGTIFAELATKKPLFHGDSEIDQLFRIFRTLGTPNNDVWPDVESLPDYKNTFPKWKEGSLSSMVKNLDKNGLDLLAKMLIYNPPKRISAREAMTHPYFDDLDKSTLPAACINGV
Sequence of Cyclin-dependent kinase 1/G2/mitotic-specific cyclin-B (P15206 whole entry): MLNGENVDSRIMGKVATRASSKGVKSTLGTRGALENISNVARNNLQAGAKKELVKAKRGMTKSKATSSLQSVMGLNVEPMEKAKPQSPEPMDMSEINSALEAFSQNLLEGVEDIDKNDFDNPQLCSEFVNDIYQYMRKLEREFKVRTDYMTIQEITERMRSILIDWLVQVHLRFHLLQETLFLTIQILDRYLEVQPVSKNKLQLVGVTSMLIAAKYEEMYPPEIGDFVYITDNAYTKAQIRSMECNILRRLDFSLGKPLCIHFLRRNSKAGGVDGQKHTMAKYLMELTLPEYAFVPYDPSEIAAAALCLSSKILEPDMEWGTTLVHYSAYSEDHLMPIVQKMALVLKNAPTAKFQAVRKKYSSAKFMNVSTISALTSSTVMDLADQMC

T1 sequence (Q15078 99-307): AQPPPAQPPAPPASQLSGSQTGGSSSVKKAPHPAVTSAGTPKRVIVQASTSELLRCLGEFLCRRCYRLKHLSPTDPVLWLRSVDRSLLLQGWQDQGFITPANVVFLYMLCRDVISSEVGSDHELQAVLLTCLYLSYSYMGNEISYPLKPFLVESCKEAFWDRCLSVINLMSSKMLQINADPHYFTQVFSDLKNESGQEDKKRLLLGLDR
T1 sequence (Q00535 whole entry): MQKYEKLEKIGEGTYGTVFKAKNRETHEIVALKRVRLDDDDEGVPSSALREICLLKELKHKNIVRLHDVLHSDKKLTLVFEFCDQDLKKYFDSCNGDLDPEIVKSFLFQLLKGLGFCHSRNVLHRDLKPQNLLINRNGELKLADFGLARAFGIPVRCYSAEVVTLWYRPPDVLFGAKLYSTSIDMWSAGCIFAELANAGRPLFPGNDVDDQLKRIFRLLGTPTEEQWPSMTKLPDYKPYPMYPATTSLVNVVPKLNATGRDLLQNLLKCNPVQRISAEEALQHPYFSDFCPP

Turning to `O=Nc1c(C2C(=O)Nc3ccc(I)cc32)[nH]c2ccccc12` (configuration not stated) [3-[(2Z,3E)-3-(hydroxyimino)-2,3-dihydro-1H-indol-2-ylidene]-5-iodo-2,3-dihydro-1H-indol-2-one], the values for the half-inhibitory concentration (IC50) in assay [1] and in assay [2] were 20 nM and 25 nM, respectively.
